Consider 30 molecules from patent US11472806B2, “Substituted heterocyclic compounds as allosteric modulators of group II metabotropic glutamate receptors” (Domain Therapeutics, priority 2017, dated 2022).

Structures can show the parent of a compound that is named as a salt.

T1 sequence (Q14832 23-879): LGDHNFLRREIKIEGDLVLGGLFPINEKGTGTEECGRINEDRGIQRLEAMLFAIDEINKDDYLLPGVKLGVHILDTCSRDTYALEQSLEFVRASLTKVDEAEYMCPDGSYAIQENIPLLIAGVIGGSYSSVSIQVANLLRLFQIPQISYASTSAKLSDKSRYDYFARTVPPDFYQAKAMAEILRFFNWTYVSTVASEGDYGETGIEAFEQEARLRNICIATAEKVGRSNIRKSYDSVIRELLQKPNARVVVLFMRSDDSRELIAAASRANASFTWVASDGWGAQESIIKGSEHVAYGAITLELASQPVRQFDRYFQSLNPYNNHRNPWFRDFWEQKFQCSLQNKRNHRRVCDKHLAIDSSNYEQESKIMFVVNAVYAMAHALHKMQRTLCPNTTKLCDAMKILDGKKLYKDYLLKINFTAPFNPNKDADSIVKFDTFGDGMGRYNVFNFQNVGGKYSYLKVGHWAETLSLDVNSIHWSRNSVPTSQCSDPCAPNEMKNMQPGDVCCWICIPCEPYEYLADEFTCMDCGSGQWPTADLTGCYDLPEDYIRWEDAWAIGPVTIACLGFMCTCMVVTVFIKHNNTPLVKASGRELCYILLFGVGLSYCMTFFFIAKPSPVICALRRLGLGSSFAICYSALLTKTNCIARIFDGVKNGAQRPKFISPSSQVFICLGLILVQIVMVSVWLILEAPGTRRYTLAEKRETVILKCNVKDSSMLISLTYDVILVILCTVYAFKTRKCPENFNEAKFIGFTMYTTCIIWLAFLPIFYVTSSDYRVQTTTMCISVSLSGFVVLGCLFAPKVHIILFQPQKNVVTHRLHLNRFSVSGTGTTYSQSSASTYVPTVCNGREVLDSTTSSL

The experiment has as its target T1, human mGluR3 (hmGluR3) (Homo sapiens, UniProt Q14832).
T1 construct: expressed in transfected cells; host or cells: HEK-293 cells, transient co-transfection by electroporation
The experiment is described as follows: Human mGluR3 positive allosteric modulator evaluation using Ca++ functional assay. It is filed as cell-based. Particulars: hmGluR3 transiently over-expressed in HEK-293 cells; cells stimulated by an EC50 glutamate concentration; intracellular Ca2+ (Fluo4AM, FLIPR Tetra). Here is the method:
Example 89: Human mGluR3 Positive Allosteric Modulator Evaluation Using Ca++ Functional Assay
Compounds of the present invention were tested successively for their agonist and positive allosteric modulator activities on human mGluR3 (hmGluR3) transiently over-expressed in HEK-293 cells. Compounds exert agonist activity if they are able to activate hmGluR3 by themselves, i.e., in absence of the endogenous agonist glutamate; and they exert positive allosteric modulator activity if they increase the action of the endogenous agonist glutamate.
Cell Culture and Transfection:
HEK-293 cells were maintained in Modified Eagle's Medium supplemented with 10% Foetal Calf Serum, 1% Penicillin/Streptomycin and 1% non-essential amino acids at 37° C./5% CO2. Cells were co-transfected by electroporation with four DNA plasmids encoding hmGluR3, a chimeric G protein allowing redirection of the activation signal toward intracellular calcium pathway, and two glutamate transporters so as to decrease extracellular glutamate levels and avoid receptor desensitization (Brabet I et al., Neuropharmacology 37(8), 1043-51, 1998). After transfection, cells were seeded in 75 cm^2 culture flasks, and cultured for 24 h.
Calcium Assa EC50 determination:
Receptor activity was detected by changes in intracellular calcium measured using the fluorescent Ca^2+ sensitive dye, Fluo4AM (Molecular Probes).
The day of the assay, medium was aspirated and replaced during 3 hrs by freshly prepared buffer B (HBSS 1×, Hepes 20 mM, MgSO4-7H2O 1 mM, Na2CO3 3.3 mM, CaCl2-2H2O 1.3 mM, 0.5% BSA, Probenecid 2.5 mM). Then, cells were loaded at 37° C./5% CO2 for 1.5 hrs with buffer B containing 1 μM Fluo4AM, 0.1 mg/mL Pluronic Acid, 7 μg/mL Glutamate Pyruvate Transaminase and 2 mM sodium pyruvate. Afterwards cells were washed with buffer B. Cells were then detached from the 75 cm^2 culture flasks with Accutase® (5 min incubation at 37° C.), centrifuged (5 min at 840 rpm), resuspended in buffer B and finally seeded at a density of 30,000 cells/well in black-walled clear-bottom 384-well plates. Addition of compounds on cells and intracellular Ca^2+ measurements (excitation 485 nm, emission 525 nm) were performed by the fluorescence microplate reader FLIPR Tetra (Molecular Devices).
Agonist and positive allosteric modulator activities of compounds were consecutively evaluated on the same cells plate. Agonist activity was first tested during 10 min with the addition of compound alone on the cells. Then, the cells were stimulated by an EC50 glutamate concentration and fluorescence was recorded for additional 3 min. EC50 glutamate concentration is the concentration giving 50% of the maximal glutamate response. Agonist and/or positive allosteric modulator activity(ies) were evaluated in comparison to basal signal or signal evoked by EC50 glutamate concentration alone, respectively.
For potency determination, a dose-response test was performed using 20 concentrations of each compound of the invention. Dose-response curves were fitted using the sigmoïdal dose-response (variable slope) analysis in XLfit Scientific Curve Fitting for Excel (IDBS). EC50 of agonist/EC50 of positive allosteric modulator activity(ies) were calculated. Dose-response experiments were all performed in duplicate, two times independently.
By EC50 is commonly meant the concentration at which the effect is half-maximal. Lower therefore signals higher potency in that assay. Take `Cc1ncccc1-c1cc2c(cn1)C1(CC1)N(C)C(=O)c1cccn1-2` [Example 3, 2′-(2-Methyl-pyridin-3-yl)-6′-methylspiro[cyclopropane-1,5′-pyrido[3,4-f]pyrrolo[1,2-a][1,4]diazepin]-7′(6 ^1H)-one]: the 50% effective concentration (EC50) fell in the range of 1000 to 10000 nM.
Turning to `Cc1ncccc1-c1cnc2c(c1)-n1cccc1C(=O)N(C)C2` [Example 6, 5-Methyl-9-(2-methyl-pyridin-3-yl)-5,6-dihydro-5,7,10b-triaza-benzo[e]azulen-4-one, dihydrochloride], the EC50 was over 10000 nM.
`Cc1ncccc1-c1cnc2c(n1)-n1cccc1C(=O)N(C)C2` [Example 7, 5-Methyl-9-(2-methyl-pyridin-3-yl)-5,6-dihydro-5,7,10,10b-tetraaza-benzo[e]azulen-4-one, dihydrochloride] had a concentration for a half-maximal effect (EC50) of 1000 to 10000 nM.
Molecule `CN1Cc2ncc(-c3cccc(C#N)c3)cc2-n2cccc2C1=O` [Example 11, 3-(5-Methyl-4-oxo-5,6-dihydro-4H-5,7,1 b-triaza-benzo[e]azulen-9-yl)-benzonitrile] came in with a 50% effective concentration (EC50) of over 10000 nM.
Take `CN1Cc2ncc(-c3ccc4nccn4c3)cc2-n2cccc2C1=O` [Example 12, 9-Imidazo[1,2-a]pyridin-6-yl-5-methyl-5,6-dihydro-5,7,10b-triaza-benzo[e]azulen-4-one]: the EC50 was over 10000 nM.
`Cc1ncccc1-c1ccc2c(c1)-n1cccc1C(=O)N(C)C21CCC1` [Example 17, 9-(2-Methyl-pyridin-3-yl)-5-methyl-5,6-dihydro-spiro[benzo[f]pyrrolo[, 2-a][1,4]diazepine-6,1′-cyclobutan]-4-one] yielded a concentration for a half-maximal effect (EC50) of 100 to 1000 nM.
To `Cc1ncccc1-c1ccc2c(c1)-c1ccccc1C(=O)N(C)C21CC1` [Example 21, 10-(2-Methyl-pyridin-3-yl)-6-methyl-6,7-dihydro-spiro[dibenzo[c,e]azepine-7,1′-cyclopropan]-5-one, hydrochloride] belongs 100 to 1000 nM; to `Cc1ncccc1-c1ccc2c(c1)-c1ccc(Cl)cc1C(=O)N(C)C21CC1` [Example 22, 3-Chloro-10-(2-methyl-pyridin-3-yl)-6-methyl-6,7-dihydro-spiro[dibenzo[c, e]azepine-7,1′-cyclopropan]-5-one], 1000 to 10000 nM; to `Cc1ncccc1-c1ccc2c(c1)-c1ccc(-c3ccnn3C)cc1C(=O)N(C)C21CC1` [Example 23, 3-(2-Methyl-2H-pyrazol-3-yl)-10-(2-methyl-pyridin-3-yl)-6-methyl-6,7-dihydro-spiro[dibenzo[c, e]azepine-7,1′-cyclopropan]-5-one], 100 to 1000 nM.
With `CN1Cc2ccc(-c3cccc(C#N)c3)cc2-c2cccnc2C1=O` [Example 25, 3-(6-Methyl-5-oxo-6,7-dihydro-5H-4,6-diaza-dibenzo[a,c]cyclohepten-10-yl)-benzonitrile], the EC50 fell in the range of 100 to 1000 nM.
`Cc1ncccc1-c1ccc2c(c1)-c1cccnc1C(=O)N(C)C2` [Example 26, 6-Methyl-10-(2-methyl-pyridin-3-yl)-6,7-dihydro-4,6-diaza-dibenzo[a, c]cyclohepten-5-one] showed an EC50 of 100 to 1000 nM.
Take `CN1Cc2ccc(-c3ccc(F)nc3)cc2-c2cccnc2C1=O` [Example 27, 10-(6-Fluoro-pyridin-3-yl)-6-methyl-6,7-dihydro-4,6-diaza-dibenzo[a, c]cyclohepten-5-one]: the half-maximal effective concentration (EC50) was in the range of 100 to 1000 nM.
Molecule `CN1Cc2ccc(-c3ccc(F)cn3)cc2-c2cccnc2C1=O` [Example 28, 10-(5-Fluoro-pyridin-2-yl)-6-methyl-6,7-dihydro-4,6-diaza-dibenzo[a, c]cyclohepten-5-one] gave an EC50 of 100 to 1000 nM.
The molecule `Cc1ncccc1-c1ccc2c(c1)-c1ccc(F)nc1C(=O)N(C)C2` [Example 30, 3-Fluoro-6-methyl-10-(2-methyl-pyridin-3-yl)-6,7-dihydro-4,6-diaza-dibenzo[a, c]cyclohepten-5-one] showed an EC50 of 1000 to 10000 nM.
On to `CN1Cc2ccc(-c3ccc(F)nc3)cc2-c2ccc(F)nc2C1=O` [Example 31, 3-Fluoro-10-(6-fluoro-pyridin-3-yl)-6-methyl-6,7-dihydro-4,6-diaza-dibenzo[a, c]cyclohepten-5-one], for which the half-maximal effective concentration (EC50) is 1000 to 10000 nM.
In turn, `CN1Cc2ccc(-c3ccc(F)cn3)cc2-c2ccc(F)nc2C1=O` [Example 32, 3-Fluoro-10-(5-fluoro-pyridin-2-yl)-6-methyl-6,7-dihydro-4,6-diaza-dibenzo[a, c]cyclohepten-5-one] registered an EC50 of 1000 to 10000 nM.
`COc1ccc2c(n1)C(=O)N(C)Cc1ccc(-c3ccc(F)cn3)cc1-2` [Example 34, 10-(5-Fluoro-pyridin-2-yl)-3-methoxy-6-methyl-6,7-dihydro-4,6-diaza-dibenzo[a, c]cyclohepten-5-one] yielded an EC50 of 100 to 1000 nM.
Molecule `COc1ccc2c(n1)C(=O)N(C)Cc1ccc(-c3cccnc3C)cc1-2` [Example 36, 3-Methoxy-6-methyl-10-(2-methyl-pyridin-3-yl)-6,7-dihydro-4,6-diaza-dibenzo[a, c]cyclohepten-5-one] came in with an EC50 of 100 to 1000 nM.
Molecule `Cc1ccc2c(n1)C(=O)N(C)Cc1ccc(-c3ccc(F)nc3)cc1-2` [Example 39, 10-(6-Fluoro-pyridin-3-yl)-3,6-dimethyl-6,7-dihydro-4,6-diaza-dibenzo[a, c]cyclohepten-5-one] displayed a 50% effective concentration (EC50) of 100 to 1000 nM.
As for `Cc1ccc2c(n1)C(=O)N(C)Cc1ccc(-c3ccc(F)cn3)cc1-2` [Example 40, 10-(5-Fluoro-pyridin-2-yl)-3,6-dimethyl-6,7-dihydro-4,6-diaza-dibenzo[a, c]cyclohepten-5-one], the EC50 was in the range of 100 to 1000 nM.
As for `Cc1ccc2c(n1)C(=O)N(C)Cc1ccc(-c3cccnc3C)cc1-2` [Example 41, 3,6-Dimethyl-10-(2-methyl-pyridin-3-yl)-6,7-dihydro-4,6-diaza-dibenzo[a, c]cyclohepten-5-one], the figure is 100 to 1000 nM.
As for `Cc1cnc2c(c1)-c1cc(-c3cccnc3C)ccc1CN(C)C2=O` [Example 43, 2,6-Dimethyl-10-(2-methyl-pyridin-3-yl)-6,7-dihydro-4,6-diaza-dibenzo[a, c]cyclohepten-5-one], the figure is 1000 to 10000 nM.
As for `Cc1cnc2c(c1)-c1cc(-c3ccc(F)nc3)ccc1CN(C)C2=O` [Example 44, 10-(6-Fluoro-pyridin-3-yl)-2,6-dimethyl-6,7-dihydro-4,6-diaza-dibenzo[a, c]cyclohepten-5-one], the concentration giving a half-maximal response (EC50) fell in the range of 100 to 1000 nM.
Molecule `Cc1ncccc1-c1ccc2c(c1)-c1cc(F)cnc1C(=O)N(C)C2` [Example 46, 2-Fluoro-6-methyl-10-(2-methyl-pyridin-3-yl)-6,7-dihydro-4,6-diaza-dibenzo[a, c]cyclohepten-5-one] came in with an EC50 of 1000 to 10000 nM.
Molecule `CN1Cc2ccc(-c3ccc(F)nc3)cc2-c2cc(F)cnc2C1=O` [Example 47, 2-Fluoro-10-(6-fluoro-pyridin-3-yl)-6-methyl-6,7-dihydro-4,6-diaza-dibenzo[a, c]cyclohepten-5-one] gave a concentration giving a half-maximal response (EC50) of 100 to 1000 nM.
Take `COc1cnc2c(c1)-c1cc(-c3cccnc3C)ccc1CN(C)C2=O` [Example 48, 2-Methoxy-6-methyl-10-(2-methyl-pyridin-3-yl)-6,7-dihydro-4,6-diaza-dibenzo[a, c]cyclohepten-5-one]: the EC50 was in the range of 100 to 1000 nM.
As for `COc1ccc2c(n1)C(=O)N(C)C1(CC1)c1ccc(Cl)cc1-2` [Example 52, 10-chloro-3-methoxy-6-methylspiro[benzo[c]pyrido[3,2-e]azepine-7,1′-cyclopropan]-5(6H)-one], the figure is 100 to 1000 nM.
To `Cc1ncccc1-c1ccc2c(c1)-c1ccsc1C(=O)N(C)C2` [Example 55, 5-Methyl-9-(2-methyl-pyridin-3-yl)-5,6-dihydro-3-thia-5-aza-benzo[e]azulen-4-one] belongs 100 to 1000 nM; to `Cc1ncccc1-c1ccc2c(c1)-c1c[nH]nc1C(=O)N(C)C2` [Example 57, 5-Methyl-9-(2-methyl-pyridin-3-yl)-5,6-dihydro-2H-2,3,5-triaza-benzo[e]azulen-4-one], 1000 to 10000 nM; to `Cc1ncccc1-c1ccc2c(c1)-c1cc[nH]c1C(=O)N(C)C2` [Example 59, 5-Methyl-9-(2-methyl-pyridin-3-yl)-5,6-dihydro-3H-3,5-diaza-benzo[e]azulen-4-one], 100 to 1000 nM.
